Laboratory results: ChEMBL document CHEMBL4257551, “Glycyrrhizic acid from licorice down-regulates inflammatory responses via blocking MAPK and PI3K/Akt-dependent NF-κB signalling pathways in TPA-induced skin inflammation” (2018)

Tests used:
Type in all cases: functional
Mus musculus [1] = test: Antiinflammatory activity against TPA-induced ear edema in BALB/c mouse assessed as weight of ear punches at 5 mM administered topically for 15 mins prior to TPA challenge and measured after 24 hrs (reference value: 12.1 +/- 0.2 mg)
Mus musculus [2] = test: Antiinflammatory activity against TPA-induced ear edema in BALB/c mouse assessed as weight of ear punches at 5 mM administered topically for 15 mins prior to TPA challenge and measured after 12 hrs (reference value: 12.4 +/- 0.1 mg)
Mus musculus [3] = test: Antiinflammatory activity against TPA-induced ear edema in BALB/c mouse assessed as weight of ear punches at 5 mM administered topically for 15 mins prior to TPA challenge and measured after 6 hrs (reference value: 12.5 +/- 0.3 mg)
Mus musculus [4] = test: Antiinflammatory activity against TPA-induced ear edema in BALB/c mouse assessed as weight of ear punches at 5 mM administered topically for 15 mins prior to TPA challenge and measured after 48 hrs (reference value: 11.4 +/- 0.3 mg)
Mus musculus [5] = test: Antiinflammatory activity against TPA-induced ear edema in BALB/c mouse assessed as weight of ear punches at 5 mM administered topically for 15 mins prior to TPA challenge and measured after 3 hrs (reference value: 8.3 +/- 0.1 mg)

Work on `C[C@]12C=CC(=O)C=C1CC[C@@H]1[C@@H]2[C@@H](O)C[C@@]2(C)[C@H]1CC[C@]2(O)C(=O)CO` [PREDNISOLONE] yielded an Activity (Mus musculus [1]) of 5.6 mg, an Activity (Mus musculus [2]) of 5.7 mg and an Activity (Mus musculus [3]) of 5.6 mg. For the same compound, the Activity (Mus musculus [4]) was 5.6 mg and the Activity (Mus musculus [5]) was 5.4 mg.
